Test results from patent publication US11046697B2, “Compounds and compositions useful for treating disorders related to NTRK” (BLUEPRINT MEDICINES CORPORATION, priority 2015, dated 2021).
Like-named read-outs stand apart in the source and are kept apart here.

Tests used:
wild type NTRK1 enzyme = target: T1, wild type NTRK1 enzyme (Homo sapiens, UniProt P04629); assay: NTRK1 Wild Type Assay at 1 mM ATP; format: biochemical; details: 1 mM ATP; read-out: Enz NTRK1 IC50
T1 construct: purchased BPS Bioscience 40280
Protocol: NTRK1 Wild Type Assay at 1 mM ATP
The reaction was stopped by the addition of 70 μL of Stop buffer (100 mM HEPES pH 7.5, 0.015% Brij 35, 35 mM EDTA and 0.2% of Coating Reagent 3 (Caliper Lifesciences)). The plate was then read on a Caliper EZReader 2 (protocol settings: −1.7 psi, upstream voltage −500, downstream voltage −3000, post sample sip 35s).

[1] = test system: KM12 Cliff (G595R) cell line; assay: NTRK G595R mutant cellular assay (CellTiter-Glo growth inhibition); format: cell-based; details: 72 hr, CellTiter-Glo
Outline: (§1)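 KM12 (TPM3-NTRK1 fusion) or KM12 Cliff (G595R) cells at 1000 cells/well in 10% FBS media were dosed with compounds at varying concentrations in duplicate after overnight plating.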

[2] = test system: KM12 wild type colon carcinoma cell line harboring the TPM3-NTRK1 fusion protein; assay: NTRK wild type cellular assay (CellTiter-Glo growth inhibition); format: cell-based; details: 72 hr, CellTiter-Glo, read-out: KM12 (WT) IC50
Outline: as §1

T1 sequence (P04629 440-796 limits assumed): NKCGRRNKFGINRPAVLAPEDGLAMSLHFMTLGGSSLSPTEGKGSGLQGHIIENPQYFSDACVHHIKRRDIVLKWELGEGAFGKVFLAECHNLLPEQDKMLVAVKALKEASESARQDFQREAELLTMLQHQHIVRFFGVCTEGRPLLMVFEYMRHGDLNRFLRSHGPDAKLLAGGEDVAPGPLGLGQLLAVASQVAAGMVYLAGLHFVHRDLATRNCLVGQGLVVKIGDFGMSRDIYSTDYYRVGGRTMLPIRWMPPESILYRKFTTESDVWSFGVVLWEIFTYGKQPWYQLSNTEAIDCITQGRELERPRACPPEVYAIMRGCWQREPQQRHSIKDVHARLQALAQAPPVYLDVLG

| SMILES | IC50 (wild type NTRK1 enzyme) [nM] | IC50 [2] [nM] | IC50 ([2]; Homo sapiens, KM12, 72 h) [nM] | IC50 [1] [nM] | IC50 ([1]; Homo sapiens, KM12, 72 h) [nM] |
| --- | --- | --- | --- | --- | --- |
| CN(Cc1cc(F)cc(OC(F)F)c1)C(=O)c1n[nH]c2ncnc(N[C@@H]3CC[C@@H](O)[C@H]3O)c12 [Compound 179] | 10 to 100 | 10 to 100 | – | 100 to 1000 | – |
| CN(C(=O)c1n[nH]c2ncnc(NC3CC(C(F)F)CC3O)c12)C(CO)c1cc(F)ccc1F (stereo not drawn) [Compound 180] | < 10 | < 10 | – | < 10 | – |
| N#Cc1cc(F)cc(C2CC(F)CN2C(=O)c2n[nH]c3ncnc(NC4CCOCC4O)c23)c1 (stereo not drawn) [Compound 181] | < 10 | 10 to 100 | – | 10 to 100 | – |
| N#Cc1cc(F)cc(C2CC(F)CN2C(=O)c2n[nH]c3ncnc(NC4COCCC4O)c23)c1 (stereo not drawn) [Compound 182] | < 10 | < 10 | – | 10 to 100 | – |
| O=C(c1n[nH]c2ncnc(NC3CCOCC3O)c12)N1CC(F)CC1c1cc(F)ccc1Br (stereo not drawn) [Compound 183] | < 10 | < 10 | – | < 10 | – |
| N#CC1CC(O)C(Nc2ncnc3[nH]nc(C(=O)N4CC(F)CC4c4cc(F)ccc4F)c23)C1 (stereo not drawn) [Compound 184] | < 10 | < 10 | – | < 10 | – |
| N#CC1CC(O)C(Nc2ncnc3[nH]nc(C(=O)N4CC(F)CC4c4cc(F)cc(F)c4)c23)C1 (stereo not drawn) [Compound 185] | < 10 | < 10 | – | < 10 | – |
| O=C(c1n[nH]c2ncnc(N[C@H]3[C@H](O)[C@H](O)[C@@H]4C[C@@H]43)c12)N1C[C@@H](F)C[C@@H]1c1cc(F)cc(F)c1 [Compound 188] | < 10 | – | < 10 | – | < 10 |
| O=C(c1n[nH]c2ncnc(N[C@H]3[C@H](O)[C@H](O)[C@@H]4C[C@@H]43)c12)N1C[C@@H](F)C[C@@H]1c1cccc(F)c1F [Compound 189] | < 10 | < 10 | – | 10 to 100 | – |
| COc1ncc(F)cc1[C@H]1C[C@H](F)CN1C(=O)c1n[nH]c2ncnc(N[C@@H]3CCOC[C@H]3O)c12 [Compound 190] | < 10 | – | 10 to 100 | – | 10 to 100 |
| O=C(c1n[nH]c2ncnc(NC3CC[C@@H](O)C[C@H]3O)c12)N1C[C@@H](F)C[C@@H]1c1cc(F)ccc1F (stereo partly drawn) [Compound 191] | < 10 | 10 to 100 | – | 10 to 100 | – |
| O=C(c1n[nH]c2ncnc(N[C@@H]3C=C[C@@H](O)[C@H]3O)c12)N1C[C@@H](F)C[C@@H]1c1cc(F)cc(Cl)c1 [Compound 192] | < 10 | 10 to 100 | – | 10 to 100 | – |
| O=C(c1n[nH]c2ncnc(NC3CCCC(O)C3O)c12)N1CC(F)CC1c1cccc(F)c1F (stereo not drawn) [Compound 193] | < 10 | 10 to 100 | – | 10 to 100 | – |
| O=C(c1n[nH]c2ncnc(N[C@@H]3C=C[C@@H](O)[C@H]3O)c12)N1C[C@@H](F)C[C@@H]1c1cc(F)cnc1Cl [Compound 194] | 10 to 100 | 10 to 100 | – | 10 to 100 | – |
| O=C(c1n[nH]c2ncnc(N[C@@H]3CC[C@@H](O)[C@H]3O)c12)N1C[C@@H](F)C[C@@H]1c1cc(F)ccc1Cl [Compound 195] | < 10 | – | < 10 | – | < 10 |
| O=C(c1n[nH]c2ncnc(N[C@@H]3CCOC[C@H]3O)c12)N1C[C@@H](F)C[C@@H]1c1cc(F)ccc1Cl [Compound 196] | < 10 | – | < 10 | – | < 10 |
| O=C(c1n[nH]c2ncnc(N[C@@H]3COC[C@@H](O)[C@H]3O)c12)N1C[C@@H](F)C[C@@H]1c1cc(F)cc(F)c1 [Compound 197] | < 10 | – | 10 to 100 | – | 10 to 100 |
| O=C(c1n[nH]c2ncnc(NC3CCOCC3O)c12)N1CC(F)CC1c1cc(F)cc(Cl)c1 (stereo not drawn) [Compound 198] | < 10 | < 10 | – | < 10 | – |

Further lines, with some results ahead:

| IC50 (wild type NTRK1 enzyme) [nM] | IC50 [2] [nM] | IC50 ([2]; Homo sapiens, KM12, 72 h) [nM] | SMILES | IC50 [1] [nM] | IC50 ([1]; Homo sapiens, KM12, 72 h) [nM] |
| --- | --- | --- | --- | --- | --- |
| 10 to 100 | < 10 | – | O=C(c1n[nH]c2ncnc(N[C@@H]3C=C[C@@H](O)[C@H]3O)c12)N1C[C@@H](F)C[C@@H]1c1cc(F)cc(F)c1F [Compound 199] | < 10 | – |
| < 10 | – | 10 to 100 | O=C(c1n[nH]c2ncnc(N[C@@H]3CCOC[C@H]3O)c12)N1C[C@@H](F)C[C@@H]1c1cc(Cl)ccc1F [Compound 200] | – | 10 to 100 |
| < 10 | < 10 | – | O=C(c1n[nH]c2ncnc(N[C@@H]3CC[C@@H](O)[C@H]3O)c12)N1C[C@@H](F)C[C@@H]1c1cc(Cl)ccc1F [Compound 201] | < 10 | – |
| < 10 | – | 10 to 100 | O=C(c1n[nH]c2ncnc(N[C@@H]3CCOC[C@H]3O)c12)N1C[C@@H](F)C[C@@H]1c1cc(F)cnc1Cl [Compound 202] | – | 10 to 100 |
| < 10 | – | < 10 | O=C(c1n[nH]c2ncnc(N[C@@H]3C[C@@H](C(F)F)C[C@H]3O)c12)N1C[C@@H](F)C[C@@H]1c1cncc(F)c1 [Compound 203] | – | < 10 |
| < 10 | – | < 10 | O=C(c1n[nH]c2ncnc(N[C@@H]3COCC[C@H]3O)c12)N1C[C@@H](F)C[C@@H]1c1cc(F)cc(F)c1F [Compound 204] | – | < 10 |
| < 10 | < 10 | – | O=C(c1n[nH]c2ncnc(NC3CCOCC3O)c12)N1CC(F)CC1c1cc(F)cc(F)c1F (stereo not drawn) [Compound 205] | < 10 | – |
| < 10 | < 10 | – | O=C(c1n[nH]c2ncnc(N[C@@H]3CC[C@@H](O)[C@H]3O)c12)N1C[C@@H](F)C[C@@H]1c1cc(F)cc(F)c1F [Compound 206] | < 10 | – |
| 10 to 100 | 10 to 100 | – | O=C(c1n[nH]c2ncnc(NC3CC(F)CC3O)c12)N1CC(F)CC1c1cc(F)cnc1Cl (stereo not drawn) [Compound 207] | 10 to 100 | – |
| < 10 | – | < 10 | O=C(c1n[nH]c2ncnc(NC3CC(F)CC3O)c12)N1CC(F)CC1c1cc(F)cc(F)c1F (stereo not drawn) [Compound 208] | – | < 10 |
| < 10 | 10 to 100 | – | CN(Cc1cc(F)ccc1C(F)(F)F)C(=O)c1n[nH]c2ncnc(NC3COCC(O)C3O)c12 (stereo not drawn) [Compound 209] | 10 to 100 | – |
| < 10 | – | < 10 | N#C[C@H]1C[C@@H](O)[C@H](Nc2ncnc3[nH]nc(C(=O)N4C[C@@H](F)C[C@@H]4c4cc(F)cc(Cl)c4)c23)C1 [Compound 211] | – | < 10 |
| < 10 | < 10 | – | N#C[C@H]1C[C@@H](O)[C@H](Nc2ncnc3[nH]nc(C(=O)N4C[C@@H](F)C[C@@H]4c4cc(F)cc(F)c4F)c23)C1 [Compound 212] | < 10 | – |
| < 10 | – | < 10 | O=C(c1n[nH]c2ncnc(N[C@H]3[C@H](O)[C@H](O)[C@@H]4C[C@@H]43)c12)N1C[C@@H](F)C[C@@H]1c1cc(F)ccc1Cl [Compound 213] | – | < 10 |
| < 10 | – | < 10 | O=C(c1n[nH]c2ncnc(N[C@H]3[C@H](O)[C@H](O)[C@@H]4C[C@@H]43)c12)N1C[C@@H](F)C[C@@H]1c1cc(F)cc(Cl)c1 [Compound 214] | – | < 10 |
| < 10 | < 10 | – | O=C(c1n[nH]c2ncnc(N[C@H]3[C@H](O)[C@H](O)[C@@H]4C[C@@H]43)c12)N1C[C@@H](F)C[C@@H]1c1cc(Cl)ccc1F [Compound 215] | < 10 | – |
| < 10 | < 10 | – | O=C(c1n[nH]c2ncnc(N[C@H]3[C@H](O)[C@H](O)[C@@H]4C[C@@H]43)c12)N1C[C@@H](F)C[C@@H]1c1cc(F)cnc1F [Compound 216] | < 10 | – |
| < 10 | < 10 | – | O=C(c1n[nH]c2ncnc(NC3CCCC(O)C3O)c12)N1CC(F)CC1c1cc(F)ccc1Cl (stereo not drawn) [Compound 217] | < 10 | – |
| < 10 | < 10 | – | COc1c(F)cc(F)cc1C1CC(F)CN1C(=O)c1n[nH]c2ncnc(NC3CCOCC3O)c12 (stereo not drawn) [Compound 218] | < 10 | – |
| < 10 | < 10 | – | COc1c(F)cc(F)cc1[C@H]1C[C@H](F)CN1C(=O)c1n[nH]c2ncnc(N[C@@H]3CC[C@@H](O)[C@H]3O)c12 [Compound 219] | < 10 | – |
| < 10 | < 10 | – | O=C(c1n[nH]c2ncnc(N[C@H]3[C@H](O)[C@H](O)[C@@H]4C[C@@H]43)c12)N1C[C@@H](F)C[C@@H]1c1cc(F)cc(F)c1F [Compound 220] | < 10 | – |
| < 10 | – | < 10 | O=C(c1n[nH]c2ncnc(N[C@@H]3CCC[C@@H](O)[C@H]3O)c12)N1C[C@@H](F)C[C@@H]1c1cc(Cl)ccc1F [Compound 221] | – | < 10 |
| < 10 | – | 10 to 100 | O=C(c1n[nH]c2ncnc(N[C@@H]3COC[C@@H](O)[C@H]3O)c12)N1C[C@@H](F)C[C@@H]1c1cc(F)ccc1Cl [Compound 222] | – | 10 to 100 |
| < 10 | 10 to 100 | – | O=C(c1n[nH]c2ncnc(NC3COCC(O)C3O)c12)N1CC(F)CC1c1cc(F)cc(Cl)c1 (stereo not drawn) [Compound 223] | 10 to 100 | – |
| < 10 | – | < 10 | O=C(c1n[nH]c2ncnc(N[C@@H]3CCC[C@@H](O)[C@H]3O)c12)N1C[C@@H](F)C[C@@H]1c1cc(F)cc(F)c1F [Compound 224] | – | < 10 |
| < 10 | 10 to 100 | – | O=C(c1n[nH]c2ncnc(NC3CCCC(F)(F)[C@H]3O)c12)N1C[C@@H](F)C[C@@H]1c1cc(F)ccc1F (stereo partly drawn) [Compound 225] | 10 to 100 | – |
